# Assay results reported in patent US7157487B2, “Vla-4 inhibitors” (Daiichi Pharmaceutical Co., Ltd., priority 2000, dated 2007).
# Target: T1, integrins haα4 and β1 (VLA-4) expressed on CHO cells (Homo sapiens, UniProt P05556+P13612)
# T1 construct: expressed in transfected cells; host or cells: CHO cells
# Experiment: In vitro Evaluation Test (1): binding of Eu3+-hVCAM-1 D1D7-IgG to CHO cells expressing integrins α4 and β1
# Conditions: inhibition of Eu3+-hVCAM-1 D1D7-IgG binding to CHO cells expressing α4β1; Ki calculated from IC50
# Protocol: CHO cells forcedly expressed by the transduction of integrins haα4 and β1 were seeded in a Coster 3599 plate (3×10^4 cells/100 μl/well) and they were cultured for 2 days. After the medium was washed with buffer A* twice, 50 μl/well of Eu^3+-hVCAM-1 D1D7-IgG diluted to […] with an assay buffer ** was added. To the resulting well was added 50 μl/well of a test compound diluted with 2% DMS0-assay buffer (in the presence or absence of 6% human serum albumin) (to a well subjected to Scatchard analysis was added a solution diluted in another manner). After stirring for 5 minutes on a plate mixer, the plate was allowed to stand at room temperature for 1 hour. Then, the plate was washed four times with the buffer A and added with 100 μl/well of an enhancement reagent (DELFIA). The plate was shaken for 5 minutes on a plate mixer, followed by measurement of fluorescence intensity by a time-resolved fluorometer (DELFIA Wallac). From the binding ratio available by the following calculation formula: ((FT−FNS)−(FI−FNS))/(FT−FNS)×100, the IC50 (concentration inhibiting 50% of binding of CHO cells with hVCAM-1 D1D7-IgG) of the test compound was determined. In the above formula, FT means the fluorescence intensity of the well free of the test compound, FNS means the fluorescence intensity of the well free of the test compound and anti-hα4 antibody (SG/73), and FI means the fluorescence intensity of the well containing the test compound. The Kd indicating the binding strength and Bmax (maximum binding) were estimated within a range of 0.06 to 20 nM in accordance with the Scatchard analysis method.
# The value Ki was calculated based on:
# [formula] ((L) means a ligand concentration). (* buffer A: 25 mM HEPES (pH 7.5), 150 mM NaCl, 1 mM Ca^2+, 1 MM Mg^2+, 4 mM Mn^2+; ** assay buffer: 25 mM HEPES (pH 7.5), 150 mM NaCl, 1 mM Ca^2+, 1 mM Mg^2+, 4 mM Mn^2+, 0.1% BSA, 20 μM DTPA, with/without 6% ALBUMIN, HUMAN SERUM (C/N A-1653, SIGMA)) In vitro Evaluation Test (2)
# T1 sequence (P13612 34-1032): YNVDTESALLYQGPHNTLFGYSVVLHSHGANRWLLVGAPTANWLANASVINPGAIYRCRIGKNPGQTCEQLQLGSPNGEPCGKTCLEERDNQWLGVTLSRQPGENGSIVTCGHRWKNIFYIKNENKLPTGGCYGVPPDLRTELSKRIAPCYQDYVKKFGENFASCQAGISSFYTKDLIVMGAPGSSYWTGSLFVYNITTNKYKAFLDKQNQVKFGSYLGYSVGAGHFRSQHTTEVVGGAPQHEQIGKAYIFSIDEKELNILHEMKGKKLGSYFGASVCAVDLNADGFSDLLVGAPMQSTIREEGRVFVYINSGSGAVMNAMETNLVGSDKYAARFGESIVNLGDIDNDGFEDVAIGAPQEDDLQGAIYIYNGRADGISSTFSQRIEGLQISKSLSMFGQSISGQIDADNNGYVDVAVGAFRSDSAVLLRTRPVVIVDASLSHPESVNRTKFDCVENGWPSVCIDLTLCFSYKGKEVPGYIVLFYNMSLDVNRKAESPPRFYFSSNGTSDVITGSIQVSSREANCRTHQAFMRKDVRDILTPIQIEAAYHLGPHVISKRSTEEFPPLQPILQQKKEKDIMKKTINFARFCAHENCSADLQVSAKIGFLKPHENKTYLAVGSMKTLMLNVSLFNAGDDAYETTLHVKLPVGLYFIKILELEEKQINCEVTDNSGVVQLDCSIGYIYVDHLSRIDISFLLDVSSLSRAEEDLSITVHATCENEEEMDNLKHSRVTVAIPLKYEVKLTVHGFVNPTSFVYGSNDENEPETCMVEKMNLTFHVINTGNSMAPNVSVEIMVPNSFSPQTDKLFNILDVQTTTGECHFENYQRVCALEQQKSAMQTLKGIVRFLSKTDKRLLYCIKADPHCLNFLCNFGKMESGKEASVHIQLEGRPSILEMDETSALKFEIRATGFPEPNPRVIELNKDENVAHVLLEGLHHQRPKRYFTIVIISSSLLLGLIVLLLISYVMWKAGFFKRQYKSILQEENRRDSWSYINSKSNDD
# T1 sequence (P05556 21-798): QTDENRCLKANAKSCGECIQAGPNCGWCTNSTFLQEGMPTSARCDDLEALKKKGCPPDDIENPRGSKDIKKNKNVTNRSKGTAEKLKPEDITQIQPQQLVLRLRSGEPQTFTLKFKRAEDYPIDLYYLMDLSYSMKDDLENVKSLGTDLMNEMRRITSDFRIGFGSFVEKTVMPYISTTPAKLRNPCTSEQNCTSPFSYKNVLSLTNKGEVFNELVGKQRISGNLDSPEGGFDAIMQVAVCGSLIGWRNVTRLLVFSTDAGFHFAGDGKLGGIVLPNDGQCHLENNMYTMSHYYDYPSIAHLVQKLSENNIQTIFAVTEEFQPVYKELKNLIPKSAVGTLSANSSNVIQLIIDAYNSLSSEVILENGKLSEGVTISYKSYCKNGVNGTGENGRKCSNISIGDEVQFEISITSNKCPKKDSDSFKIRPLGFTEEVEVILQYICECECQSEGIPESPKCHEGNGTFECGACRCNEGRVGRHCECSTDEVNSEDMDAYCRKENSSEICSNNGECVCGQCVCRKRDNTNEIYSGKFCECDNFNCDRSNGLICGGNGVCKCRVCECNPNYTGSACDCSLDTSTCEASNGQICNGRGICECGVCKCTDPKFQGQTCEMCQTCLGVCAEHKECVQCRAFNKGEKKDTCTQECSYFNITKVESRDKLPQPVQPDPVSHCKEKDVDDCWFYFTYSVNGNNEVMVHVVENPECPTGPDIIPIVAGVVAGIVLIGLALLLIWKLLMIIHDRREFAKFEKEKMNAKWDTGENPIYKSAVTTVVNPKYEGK
row,SMILES,Ki [nM]
1,"Cc1ccccc1Nc1nc2ccc(CC(=O)N3C[C@@H](F)C[C@H]3COC3CCC(C(=O)O)CC3)c(F)c2o1 (single isomer, unassigned) [26 (Isomer A)]",2
2,"Cc1c(F)cccc1Nc1nc2ccc(CC(=O)N3C[C@@H](F)C[C@H]3CO[C@H]3CC[C@H](C(=O)O)CC3)c(F)c2o1 [Example 46, trans-4-(1-((2-(3-fluoro-2-methylphenylamino)-7-fluoro-6-benzoxazolyl)acetyl)-(4S)-fluoro-(2S)-pyrrolidinylmethoxy)cyclohexanecarboxylic acid]",37
3,"O=C(Cc1ccc(Nc2nc3c(Cl)cccc3s2)c(Cl)c1)N1C[C@@H](F)C[C@H]1CO[C@H]1CC[C@H](C(=O)O)CC1 [Example 60, trans-4-(1-(4-(4-Chloro-2-benzothiazolyl)amino-3-chlorophenylacetyl)-(4S)-fluoro-(2S)-pyrrolidinylmethoxy)cyclohexanecarboxylic acid]",6.3
4,Cc1ccc(F)cc1Nc1nc2ccc(CC(=O)N3C[C@@H](C)C[C@H]3CO[C@H]3CC[C@H](C(=O)O)CC3)c(F)c2o1 [Example 134],3.1
5,"Cc1ccc(F)cc1Nc1nc2c(F)cc(CC(=O)N3C[C@@H](F)C[C@H]3CO[C@H]3CC[C@H](C(=O)O)CC3)cc2o1 [Example 47, trans-4-(1-((2-(5-Fluoro-2-methylphenylamino)-4-fluoro-6-benzoxazolyl)acetyl)-(4S)-fluoro-(2S)-pyrrolidinylmethoxy)cyclohexanecarboxylic acid]",5.8
6,"C[C@H]1C[C@@H](CO[C@H]2CC[C@H](C(=O)O)CC2)N(C(=O)Cc2cc(Cl)c(NC(=O)c3cn(C)c4ccccc34)cc2F)C1 [Example 133, trans-4-(1-(5-Chloro-2-fluoro-4-((1-methyl-1H-3-indolylcarbonyl)amino)phenylacetyl)-(4S)-methyl-(2S)-pyrrolidinylmethoxy)cyclohexanecarboxylic acid]",22
7,"O=C(Cc1ccc(Nc2nc3ccc(Cl)cc3s2)c(Cl)c1)N1C[C@@H](F)C[C@H]1CO[C@H]1CC[C@H](C(=O)O)CC1 [Example 59, trans-4-(1-(4-(6-Chloro-2-benzothiazolyl)amino-3-chlorophenylacetyl)-(4S)-fluoro-(2S)-pyrrolidinylmethoxy)cyclohexanecarboxylic acid]",7.2
8,"Cc1ccc(F)cc1Nc1nc2ccc(CC(=O)N3C[C@@H](F)C[C@H]3C(=O)N[C@H]3CC[C@H](C(=O)O)CC3)c(F)c2o1 [Example 110, trans-4-(((4S)-Fluoro-1-(2-(5-fluoro-2-methylphenylamino)-7-fluoro-6-benzoxazolylacetyl)-(2S)-pyrrolidinyl)carbonylamino)cyclohexanecarboxylic acid]",7
9,"O=C(Cc1ccc(Nc2nc3cc(F)ccc3o2)c(Cl)c1)N1C[C@@H](F)C[C@H]1CO[C@H]1CC[C@H](C(=O)O)CC1 [Example 54, trans-4-(1-(3-Chloro-4-(2-(5-fluorobenzoxazolyl))aminophenylacetyl)-(4S)-fluoro-(2S)-pyrrolidinylmethoxy)cyclohexanecarboxylic acid]",5.6
10,"Cc1cccc2oc(Nc3ccc(CC(=O)N4C[C@@H](F)C[C@H]4CO[C@H]4CC[C@H](C(=O)O)CC4)cc3Cl)nc12 [Example 52, trans-4-(1-(3-Chloro-4-(2-(4-methylbenzoxazolyl))aminophenylacetyl)-(4S)-fluoro-(2S)-pyrrolidinylmethoxy)cyclohexanecarboxylic acid]",10
11,"C[C@H]1C[C@@H](CO[C@H]2CC[C@H](C(=O)O)CC2)N(C(=O)Cc2cc(Cl)c(NC(=O)c3nn(C)c4ccccc34)cc2F)C1 [Example 135, trans-4-(1-(5-Chloro-2-fluoro-4-((1-methyl-1H-3-indazolylcarbonyl)amino)phenylacetyl)-(4S)-methyl-(2S)-pyrrolidinylmethoxy)cyclohexanecarboxylic acid]",19
12,"Cn1cc(-c2nc3ccc(CC(=O)N4C[C@@H](F)C[C@H]4CO[C@H]4CC[C@H](C(=O)O)CC4)c(F)c3o2)c2cc(F)ccc21 (relative stereo) [Example 101, trans-4-(1-((2-(5-Fluoro-1-methyl-3-indolyl)-7-fluoro-6-benzoxazolyl)acetyl)-(4S)-fluoro-(2S)-pyrrolidinylmethoxy)cyclohexanecarboxylic acid]",8.1
13,"Cc1ccccc1Nc1nc2ccc(CC(=O)N3C[C@@H](F)C[C@H]3COc3ccc(C(=O)O)cn3)cc2o1 [Example 18, 6-((4S)-Fluoro-1-(2-(2-methylphenylamino)-6-benzoxazolylacetyl)-(2S)-pyrrolidinylmethoxy)nicotinic acid]",7.8
14,"COC[C@H]1C[C@@H](CO[C@H]2CC[C@H](C(=O)O)CC2)N(C(=O)Cc2ccc3nc(Nc4cc(F)ccc4C)oc3c2F)C1 [Example 140, trans-4-(1-(7-Fluoro-2-(5-fluoro-2-methylphenylamino)-6-benzoxazolylacetyl)-(4S)-methoxymethyl-(2S)-pyrrolidinylmethoxy)cyclohexanecarboxylic acid]",1.8
15,"O=C(Cc1ccc(Nc2nc3ccccc3s2)c(Cl)c1)N1C[C@@H](F)C[C@H]1CO[C@H]1CC[C@H](C(=O)O)CC1 [Example 56, trans-4-(1-(4-(2-Benzothiazolyl)amino-3-chlorophenylacetyl)-(4S)-fluoro-(2S)-pyrrolidinylmethoxy)cyclohexanecarboxylic acid]",2.1
16,"Cn1cc(-c2nc3ccc(CC(=O)N4C[C@@H](F)C[C@H]4CO[C@H]4CC[C@H](C(=O)O)CC4)cc3o2)c2ccc(F)cc21 [Example 99, trans-4-(1-((2-(6-Fluoro-1-methyl-3-indolyl)-6-benzoxazolyl)acetyl)-(4S)-fluoro-(2S)-pyrrolidinylmethoxy)cyclohexanecarboxylic acid]",17
17,"Cn1cc(-c2nc3ccc(CC(=O)N4C[C@@H](F)C[C@H]4COC4CCC(C(=O)O)CC4)cc3o2)c2ccccc21 (stereo partly drawn) [Example 40, 4-((4S)-Fluoro-1-(2-(1-methyl-3-indolyl)-6-benzoxazolylacetyl)-(2S)-pyrrolidinylmethoxy)cyclohexanecarboxylic acid]",1.9
18,"O=C(O)c1ccc(OC[C@@H]2C[C@H](F)CN2C(=O)Cc2ccc(NC(=O)c3c[nH]c4ccccc34)c(Cl)c2)cc1 [Example 15, 4-(1-(3-Chloro-4-(3-indolylcarbonylamino)phenylacetyl)-(4S)-fluoro-(2S)-pyrrolidinylmethoxy)benzoic acid]",2.2
19,"O=C(Nc1cc(F)c(CC(=O)N2C[C@@H](F)C[C@H]2CO[C@H]2CC[C@H](C(=O)O)CC2)cc1Cl)c1nsc2ccccc12 [Example 85, trans-4-(1-(5-Chloro-2-fluoro-(4-((3-benzo(d)isothiazolylcarbonyl)amino)phenyl)acetyl)-(4S)-fluoro-(2S)-pyrrolidinylmethoxy)cyclohexanecarboxylic acid]",6.4
20,"Cn1cc(C(=O)Nc2ccc(CC(=O)N3C[C@@H](F)C[C@H]3COc3ccc(C(=O)O)cn3)cc2Cl)c2ccccc21 [Example 150, 6-(1-(3-Chloro-4-(1-methyl-3-indolyl)carbonylaminophenylacetyl)-(4S)-fluoro-(2S)-pyrrolidinylmethoxy)nicotinic acid]",10
21,"Cn1cc(C(=O)Nc2cc(F)c(CC(=O)N3CC[C@@H](CO[C@H]4CC[C@H](C(=O)O)CC4)C3)cc2Cl)c2ccccc21 [Example 163, trans-4-(1-(5-Chloro-2-fluoro-4-(1-methyl-3-indolyl)carbonylaminophenylacetyl)-(3R)-pyrrolidinylmethyloxy)cyclohexanecarboxylic acid]",39
22,"Cn1cc(C(=O)Nc2ccc(CC(=O)N3C[C@@H](F)C[C@H]3CO[C@H]3CC[C@H](C(=O)O)CC3)nc2Cl)c2ccccc21 [Example 69, trans-4-(1-(2-Chloro-3-((1-methyl-3-indolylcarbonyl)amino)-6-pyridyl)acetyl)-(4S)-fluoro-(2S)-cyclohexanecarboxylic acid]",34
23,"O=C(Nc1cc(F)c(CC(=O)N2C[C@@H](F)C[C@H]2CO[C@H]2CC[C@H](C(=O)O)CC2)cc1Cl)c1nccc2ccccc12 [Example 81, trans-4-(1-((5-Chloro-2-fluoro-4-((1-isoquinolinylcarbonyl)amino)phenyl)acetyl)-(4S)-fluoro-(2S)-pyrrolidinylmethoxy)cyclohexanecarboxylic acid]",25
24,"Cc1ccc(F)cc1Nc1nc2ccc(CC(=O)N3[C@H](CO[C@H]4CC[C@H](C(=O)O)CC4)CC[C@@H]3C)c(F)c2o1 [Example 137, trans-4-(1-((2-(5-Fluoro-2-methylphenylamino)-7-fluoro-6-benzoxazolyl)acetyl)-(5S)-methyl-(2S)-pyrrolidinylmethoxy)cyclohexanecarboxylic acid]",5.6
